For one test, the target named is T1, IDH2-R140Q (Homo sapiens, UniProt P48735, R140Q).
T1 construct: expressed in transfected cells
T1 sequence (P48735 40-452 R140Q): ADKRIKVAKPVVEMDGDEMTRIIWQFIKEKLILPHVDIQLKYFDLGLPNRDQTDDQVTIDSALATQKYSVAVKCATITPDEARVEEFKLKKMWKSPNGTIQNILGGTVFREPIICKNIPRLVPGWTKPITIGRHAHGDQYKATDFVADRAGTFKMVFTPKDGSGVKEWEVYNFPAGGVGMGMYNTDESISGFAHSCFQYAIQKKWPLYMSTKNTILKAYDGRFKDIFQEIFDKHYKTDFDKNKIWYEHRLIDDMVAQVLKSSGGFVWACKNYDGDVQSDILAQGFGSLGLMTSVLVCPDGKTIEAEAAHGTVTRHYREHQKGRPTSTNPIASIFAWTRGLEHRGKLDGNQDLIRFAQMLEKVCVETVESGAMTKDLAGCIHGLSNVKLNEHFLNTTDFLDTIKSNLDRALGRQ
In words: Fluorescent determination of IDH2-R140Q cell activity (2-HG in U87MGR140Q cells). In kind it is cell-based. Conditions: 72 hours incubation, read-out: IC50 (2-HG inhibition). The protocol:
Enzyme reaction solution: 1 mM nicotinamide adenine dinucleotide (NAD), 0.6 ng/μL D-2-hydroxyglutarate dehydrogenase (D2HGDH), 0.8 U/mL lipoamidase dehydrogenase (Diaphorase) and 60 μM Resazurin in 40 mM Tris.HCl pH 8.8 assay buffer.
Standard curve stock solution: The standard of 2-HG sodium salt was serially diluted in serum-free MEM medium to make a standard curve stock solution.
100 μL of U87MGR140Q cells were seeded at a density of 6×10^4/mL per well in a 96-well plate a.
From each well of 96-well plate a, 50 μL of the culture supernatant was transferred to the corresponding well of 96-well plate b; at the same time, 50 μL of standard curve stocking solution was added to other wells of 96-well plate b. Then 10 μl of 360 mM hydrochloric acid was added to all the wells. After shaking and mixing, the plate was placed on ice for 10 minutes, and then 10 μl of 420 mM Tris-base was added. After shaking and mixing, the plate was placed on ice for additional 5 minutes. Then the plate was centrifuged at 2500 rpm for 10 minutes.
After centrifuging, from each well of 96-well plate b, 20 μL of the supernatant was transferred to 96-well plate c. An additional 80 μL of the enzyme reaction solution was added to each well and incubated at 25° C. for 90 minutes.
A standard curve of the fluorescence value vs. the corresponding 2-HG concentration was made, and the 2-HG concentration corresponding to each concentration point of the compound was calculated, then the inhibition ratio was calculated, and the data was analyzed using XLfit5 (ID Business Solutions Limited) software to obtain the IC50 value.
The inhibition ratio was calculated as follows: Inhibition Ratio (IH %)=(1-2-HG concentration of test compound treated cells/2-HG concentration of control cells)×100%.

The target of another test is T2, IDH1-R132H (Homo sapiens, UniProt O75874, R132H).
T2 construct: expressed in transfected cells; host or cells: U87MG cells (U87MGR132H)
In words: Fluorescent determination of IDH1-R132H cell activity (2-HG in U87MGR132H cells). In kind it is cell-based. To be noted: 2-HG inhibition in U87MGR132H cells transfected with IDH1-R132H mutant plasmid.

A value given as a limit tells only on which side of the number the result lay.

T2 sequence (O75874 whole entry R132H): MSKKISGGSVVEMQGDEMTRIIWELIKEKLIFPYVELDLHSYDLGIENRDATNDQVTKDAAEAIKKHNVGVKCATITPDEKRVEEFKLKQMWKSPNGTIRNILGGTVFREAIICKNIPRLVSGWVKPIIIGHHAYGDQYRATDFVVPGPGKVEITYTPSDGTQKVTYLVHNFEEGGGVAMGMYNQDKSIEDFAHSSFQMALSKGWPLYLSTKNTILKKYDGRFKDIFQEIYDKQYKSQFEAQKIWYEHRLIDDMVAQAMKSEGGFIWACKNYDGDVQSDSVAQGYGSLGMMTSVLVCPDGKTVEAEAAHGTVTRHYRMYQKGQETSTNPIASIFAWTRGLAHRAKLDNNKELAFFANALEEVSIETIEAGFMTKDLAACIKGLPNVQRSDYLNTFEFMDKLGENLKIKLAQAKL

As for `CC(C)Nc1nc(Nc2ccc3ccnn3c2)nc(C2=C(F)C(O)CCC2)n1` (racemic) [Compound 200], the IC50 (commonly the concentration at which inhibition is half-maximal) was 0.632 µM at IDH2-R140Q and over 10 µM on IDH1-R132H.

For `C[C@@H](Nc1nc(NC(C)(C)C)nc(C2=CC(O)CCC2)n1)C(F)(F)F` (mixture of isomers) [Compound 155], the concentration for half-maximal inhibition (IC50) on IDH2-R140Q is 0.319 µM; on IDH1-R132H, 2.25 µM.

For `C[C@@H](Nc1nc(NCC2CC2)nc(C2=C(F)C(O)C(F)CC2)n1)C(F)(F)F` (single isomer, unassigned) [Compound 225], the figures for the IC50 at IDH2-R140Q and against IDH1-R132H were 0.036 µM and 0.917 µM, respectively.

As to `CC(C)Nc1nc(Nc2ccc3ccccc3n2)nc(C2=C(F)C(O)CCC2)n1` (stereo not shown) [Compound 62], the IC50 on IDH2-R140Q was found to be 1.34 µM; against IDH1-R132H it was 2.7 µM.

In the case of `C[C@@H](Nc1nc(N[C@H](C)C(F)(F)F)nc(C2=C(F)C(O)C(F)CC2)n1)C(F)(F)F` (stereo partly drawn) [Compound 267, 3-(4,6-Bis(((R)-1,1,1-trifluoropropan-2-yl)amino)-1,3,5-triazin-2-yl)-2,6-difluorocyclohex-2-en-1-D-1-ol], the IC50 at IDH2-R140Q came to 1.33 µM; against IDH1-R132H it was 3.57 µM.

In the case of `CC(C)(C)ONc1nc(Nc2ccc3sncc3c2)nc(C2=C(F)C(O)CCC2)n1` (racemic) [Compound 34], the half-inhibitory concentration (IC50) at IDH2-R140Q was 0.145 µM; at IDH1-R132H, over 10 µM.

As to `CONc1nc(Nc2ccnc(C(F)(F)F)c2)nc(C2=C(F)C(O)C(F)(F)CC2)n1` (stereo not shown) [Compound 298], the figures for the IC50 at IDH2-R140Q and at IDH1-R132H were 0.62 µM and over 10 µM, respectively.

For the compound `CCC(Nc1nc(N[C@H](C)C(F)(F)F)nc(C2=C(F)C(O)CCC2)n1)C(F)(F)F` (mixture of isomers) [Compound 15], the 50% inhibitory concentration (IC50) is 0.259 µM at IDH2-R140Q and 0.619 µM at IDH1-R132H.

On to `CC(C)(C)ONc1nc(Nc2ccnc(C(F)(F)F)c2)nc(C2=C(F)C(O)C(F)(F)CC2)n1` (stereo not shown) [Compound 275], for which the IC50 at IDH2-R140Q was found to be 0.062 µM; against IDH1-R132H, 8.02 µM.

With `[2H]C1(O)CCCCC(c2nc(NC3CC(F)(F)C3)nc(N[C@H](C)C(F)(F)F)n2)=C1F` (mixture of isomers) [Compound 24], the IC50 on IDH2-R140Q worked out at 0.197 µM; against IDH1-R132H, 0.769 µM.

As to `CC(C)Nc1nc(NC2CC(F)(F)C2)nc(C2=C(F)C(O)C(F)(F)CC2)n1` (stereo not shown) [Compound 261], the IC50 on IDH2-R140Q was 0.094 µM; against IDH1-R132H, 2.23 µM.

As for `CC(C)Nc1nc(Nc2ccc3nscc3c2)nc(C2=C(F)C(O)CCC2)n1` (racemic) [Compound 229], the IC50 on IDH2-R140Q was 0.383 µM; against IDH1-R132H it was over 10 µM.

Consider `C[C@@H](Nc1nc(N[C@H](C)C(F)(F)F)nc(C2=C(F)C(O)C(F)CC2)n1)C(F)(F)F` (stereo partly drawn) [Compound 268, 3-(4,6-Bis(((R)-1,1,1-trifluoropropan-2-yl)amino)-1,3,5-triazin-2-yl)-2,6-difluorocyclohex-2-en-1-D-1-ol], for which the IC50 on IDH2-R140Q was 0.349 µM; against IDH1-R132H, 0.939 µM.

With `CC(C)Nc1nc(Nc2ccc3sncc3c2)nc(C2=C(F)C(O)CCC2)n1` (stereo not shown) [Compound 65], the figures for the IC50 at IDH2-R140Q and against IDH1-R132H were 0.152 µM and over 10 µM, respectively.

`C[C@@H](Nc1nc(NCC(F)(F)F)nc(C2=C(F)C(O)C(F)(F)CC2)n1)C(F)(F)F` (mixture of isomers) [Compound 245] registered an IC50 on IDH1-R132H of 1.5 µM.

For `CC(C)Nc1nc(N[C@H](C)C(F)(F)F)nc(C2=C(F)C(O)C(F)CC2)n1` (single isomer, unassigned) [Compound 96], the IC50 at IDH2-R140Q was found to be 0.675 µM; against IDH1-R132H, 2.7 µM.

As to `C[C@@H](Nc1nc(NC2CCC(F)(F)CC2)nc(C2=CC(O)CCC2)n1)C(F)(F)F` (stereo partly shown) [Compound 181], the figures for the IC50 on IDH2-R140Q and against IDH1-R132H were 0.177 µM and 0.476 µM, respectively.

Consider `C[C@@H](Nc1nc(N)nc(C2=C(F)C(O)C(F)(F)CC2)n1)C(F)(F)F` (stereo partly drawn) [Compound 280, 3-(4-Amino-6-(((R)-1,1,1-trifluoropropan-2-yl)amino)-1,3,5-triazin-2-yl)-2,6,6-trifluoro-cyclohex-2-en-1-ol], for which the concentration for half-maximal inhibition (IC50) on IDH2-R140Q and at IDH1-R132H was over 10 µM throughout.

For `C[C@@H](Nc1nc(NCC2CCC2(F)F)nc(C2=C(F)C(O)CCC2)n1)C(F)(F)F` (mixture of isomers) [Compound 171], the concentration for half-maximal inhibition (IC50) came to 0.268 µM on IDH2-R140Q and 1.57 µM against IDH1-R132H.

`C[C@@H](Nc1nc(NCC2CC2)nc(C2=C(F)C(O)C(F)CC2)n1)C(F)(F)F` (single isomer, unassigned) [Compound 226]: the results for the IC50 at IDH2-R140Q and against IDH1-R132H were 0.361 µM and 5.12 µM, respectively.

In the case of `C[C@@H](Nc1nc(N[C@H](C)C(F)(F)F)nc(C2=CC(O)C(F)(F)CC2)n1)C(F)(F)F` (mixture of isomers) [Compound 281], the IC50 worked out at 0.69 µM at IDH2-R140Q and 0.455 µM against IDH1-R132H.

Take `C[C@@H](Nc1nc(NC2CC2)nc(C2=C(F)C(O)CCC2)n1)C(F)(F)F` (stereo partly shown) [Compound 224]: the IC50 stood at 0.137 µM on IDH2-R140Q and 4.65 µM on IDH1-R132H.

On to `CC(C)(C)ONc1nc(Nc2cc(C#N)ccn2)nc(C2=C(F)C(O)CCC2)n1` (stereo not shown) [Compound 60], for which the concentration for half-maximal inhibition (IC50) is 0.59 µM at IDH2-R140Q and over 10 µM against IDH1-R132H.

For `C[C@@H](Nc1nc(NC(CF)CF)nc(C2=C(F)C(O)CCC2)n1)C(F)(F)F` (stereo partly shown) [Compound 41], the IC50 on IDH2-R140Q is 0.297 µM; against IDH1-R132H, 1.63 µM.

For the compound `C[C@@H](Nc1nc(NC2CCCC2)nc(C2=CC(O)CCC2)n1)C(F)(F)F` (mixture of isomers) [Compound 130], the IC50 on IDH2-R140Q is 0.067 µM; against IDH1-R132H it was 0.733 µM.

Turning to `Cc1nccc(Nc2nc(NOC(C)(C)C)nc(C3=C(F)C(O)CCC3)n2)n1` (stereo not shown) [Compound 205], the IC50 on IDH2-R140Q was 0.803 µM; against IDH1-R132H, over 10 µM.

For `C[C@H](Nc1nc(N[C@@H](C)C(F)(F)F)nc(C2=C(F)C(O)CCC2)n1)C(F)(F)F` (stereo partly shown) [Compound 69], the IC50 on IDH2-R140Q stood at 0.173 µM.

As to `[2H]C1([2H])CCC(c2nc(NC(C)C)nc(NC3CC(F)(F)C3)n2)=C(F)C1O` (stereo not shown) [Compound 56], the IC50 on IDH2-R140Q came to 0.093 µM.

On to `CC(C)Nc1nc(Nc2cnn(C)c2)nc(C2=C(F)C(O)CCC2)n1` (stereo not shown) [Compound 57], for which, on IDH2-R140Q, the IC50 is 2.18 µM.

As for `CC(CO)Nc1nc(N[C@H](C)C(F)(F)F)nc(C2=CC(O)CCC2)n1` (mixture of isomers) [Compound 184], the IC50 on IDH2-R140Q amounted to 3.78 µM.

As for `C[C@@H](Nc1nc(N[C@H]2CCOC2)nc(C2=CC(O)CCC2)n1)C(F)(F)F` (stereo partly shown) [Compound 180], the IC50 at IDH2-R140Q is 0.531 µM.

On to `OC1CCCC(c2nc(Nc3ccc(F)cc3)nc(Nc3ccnc(C(F)(F)F)c3)n2)=C1F` (stereo not shown) [Compound 72], for which the IC50 at IDH2-R140Q turned out to be 0.042 µM.

For `CC(C)CNc1nc(N[C@H](C)C(F)(F)F)nc(C2=C(F)C(O)CCC2)n1` (mixture of isomers) [Compound 12], on IDH2-R140Q, the IC50 is 0.199 µM.

As to `CC(C)Nc1nc(Nc2ccn3nccc3c2)nc(C2=C(F)C(O)CCC2)n1` (stereo not shown) [Compound 59], the IC50 at IDH2-R140Q came out at 0.221 µM.

Take `C[C@@H](Nc1nc(N[C@@H]2CCOC2)nc(C2=CC(O)CCC2)n1)C(F)(F)F` (stereo partly shown) [Compound 179]: at IDH2-R140Q, the half-inhibitory concentration (IC50) turned out to be 0.598 µM.

In the case of `CC(C)Nc1nc(N[C@H](C)C(F)(F)F)nc(C2=CCCC(O)C2)n1` (mixture of isomers) [Compound 144, 3-(4-(Isopropylamino)-6-(((R)-1,1,1-trifluoropropan-2-yl)amino)-1,3,5-triazin-2-yl)cyclohex-3-en-1-ol], the IC50 on IDH2-R140Q was determined as 2.75 µM.

As for `CC[C@@H](C)Nc1nc(N[C@H](C)C(F)(F)F)nc(C2=C(F)C(O)CCC2)n1` (mixture of isomers) [Compound 164], on IDH2-R140Q, the IC50 came to 0.176 µM.

As to `C[C@@H](Nc1nc(NC2(C)CC2)nc(C2=CC(O)CCC2)n1)C(F)(F)F` (mixture of isomers) [Compound 156], the IC50 on IDH2-R140Q worked out at 0.657 µM.

Regarding `C[C@@H](Nc1nc(NCC(F)(F)F)nc(C2=C(F)C(O)C(F)(F)CC2)n1)C(F)(F)F` (mixture of isomers) [Compound 208], at IDH2-R140Q, the IC50 came to 0.102 µM.

For the compound `CC(C)(O)CNc1nc(Nc2ccnc(C(F)(F)F)c2)nc(C2=C(F)C(O)CCC2)n1` (stereo not shown) [Compound 70], on IDH2-R140Q, the IC50 worked out at 0.112 µM.

Turning to `C[C@@H](Nc1nc(N[C@H](C)C(F)(F)F)nc(C2=CCCCC2)n1)C(F)(F)F` [Compound 186, 6-(Cyclohex-1-en-1-yl)-N^2,N^4-bis((R)-1,1,1-trifluoropropan-2-yl)-1,3,5-triazine-2,4-diamine], on IDH2-R140Q, the IC50 turned out to be 0.677 µM.

Take `CC(C)Nc1nc(N[C@H](C)C(F)(F)F)nc(C2=CCCC2)n1` [Compound 189]: at IDH2-R140Q, the 50% inhibitory concentration (IC50) was 1.41 µM.
